Assay results: patent US20130130306A1, “ZN (II) BASED COLORIMETRIC SENSOR AND PROCESS FOR THE PREPARATION THEREOF” (COUNCIL OF SCIENTIFIC & INDUSTRIAL RESEARCH, priority 2010, published 2013)

Key:
[1] = Spectrophotometric titration, inclusion complex formation with α-CD; type: binding; conditions: α-CD 0-2.3 mM
Protocol: Preliminary spectral studies reveal that absorption maxima for L.Zn (Scheme 1, Formula 1A) (463 nm) tend to shift to shorter wavelength (458 nm) on addition of aqueous solution of α-CD (0-2.3 mM) in excess to the […] solution of L.Zn (Scheme 1, Formula 1A). Formation of host-guest type inclusion complex on addition of trans-1,2-bis-(4-pyridyl)ethylene, 4,4′-azopyridine (AZP) and some related bipyridine/biphenyl molecules in α-CD is reported by several researcher (Shukla, A. D.; Bajaj, H. C.; Das, A. Angew. Chem. Int. Ed. 2001, 40, 446.; Shukla, A. D.; Bajaj, H. C., Das, A. Nat. Acad. Science, 2002, 114, 431.; Beer, A. J.; Macartney, D. H. Inorg. Chem. 2000, 39, 1410.; Macartney, D. H.; Waddling, C. A.; Inorg. Chem. 1994, 33, 5912.; Philip, D.; Stoddart, J. F. Angew. Chem. Int. Ed. 1996, 35, 1154). It is also reported that inclusion in these compounds in the CD cavity influences the HOMO-LUMO energy gap and there by the absorption spectral bands-though the perturbation of the energy levels are not reported to be an appreciable one. Thus, in this present study, the observed shift of 5 nm could be attributed to the inclusion phenomena and the formation of a pseudo-rotaxane complex.
General formula that was used for calculating the binding constants from UV-vis titrations is given below:
Binding Constant,K=[L.Zn.CD]/{[L.Zn]free[CD]free} (5) […]

[2] = Solubility in water without and with α-cyclodextrin; type: physicochemical
Protocol: Solubility of L.Zn (Scheme 1, Formula 1A) in water is limited (0.0448 gL^−1). However, this could be enhanced in presence of α-cyclodextrin (c-CD). 2.3 mg of L.Zn (Scheme 1, Formula 1A) was dissolved in 5 mL of double distilled water and stirred at 25 to 35° C. for 1 hour. […] Similar experiment was repeated in presence of α-CD. In this case 14.2 mg of α-CD was dissolved in 5 mL of double distilled water containing 2.913 mg of L.Zn (Scheme 1, Formula 1A) and this solution was stirred at 25° C. for 1 hour; while a solution with little suspended solid was obtained. This was filtered using G-4 gooch crucible. Filtrate was collected and optical density (O.D.) of the filtrate was monitored at 458 nm. Considering the complete formation of the inclusion complex (pseudorotaxane form), concentration was evaluated based on the known εLZn.α-CD value and the O.D. at 458 nm. […] L.Zn (Scheme 1, Formula 1A) present in aqueous solution in the pseudorotaxane form is being represented as L.Zn.CD in Scheme 2.

[3] = system: eukaryotic and prokaryotic (Gram +ve/Gram −ve) cells; assay: Staining of eukaryotic and prokaryotic cells, time needed and differentiation; type: cell-based
Protocol: Using the present Zn(II)-reagent (L.Zn) in presence of α-CD, eukaryotic and prokaryotic (Gram +ve/Gram −ve) cells could be stained with only 2 minutes incubation; while for the previous reagent (1.Zn) cells were needed to be incubated for 10 minutes for color development. Further, intensity of color of the stained cell (using present Zn(II)-complex was much more intense as compared to that reported earlier.
We also explored the possibility of using L.Zn/L.Zn.α-CD as the staining agent for prokaryotes (Gram +ve and Gram −ve bacterial cells). […] As expected stained cells for Gram +ve bacteria appeared longer as compared to those of the stained Gram −ve bacteria. The difference in the staining intensity for two different bacteria with the L.Zn.α-CD (Scheme 2) could be much better understood after going into the depth of cell biology of each bacterial cells and the detailed biochemistry involved while staining; besides, difference in cell structure and cell wall composition of the respective bacteria. […] Changes on the cell surfaces on binding of the dye, L.Zn (Scheme 1, Formula 1A) were also evident from the SEM images recorded for Gram −ve and Gram +ve bacteria, in absence and presence of staining agent (FIGS. 11C to 11F). […] The growth profile of Eukaryotic Yeast cells (Saccharomyces cerevisiae) and Prokaryotic bacterial cells ([…]) in an aqueous culture medium in absence and presence of L.Zn (Scheme 1, Formula 1A) are shown in FIG. 12. Change in absorbance (at λmax=600 nm) vs time (t) was plotted up to 30 h; as no appreciable change in growth was observed thereafter. […] FIGS. 12a, 12c and 12e show the actual growth curve of Saccharomyces cerevisiae, Pseudomonas fluorescence and Bacillus megaterium, respectively with time. While, FIGS. 12b, 12d and 12f show relative build up of ATP in cytoplasm with time for Saccharomyces cerevisiae, Pseudomonas fluorescence and Bacillus megaterium, respectively in presence of L.Zn (Scheme 1, Formula 1A) (D1) and L.Zn.α-CD (Scheme 2) (D2). […]

CN(C)c1ccc(N=Nc2ccc(S(=O)(=O)N3CCCNCCNCCCNCC3)cc2)cc1.O=[N+]([O-])[O-].O=[N+]([O-])[O-].[Zn+2] [L.Zn]
association constant of inclusion complex with α-CD ([1]; aqueous solution): 255 (+15) M^−1 | association constant of inclusion complex with α-CD ([1]; aqueous solution (as printed in b187)): 255 (±15) M^1 | L.Zn present in solution in presence of α-CD ([2]; 14.2 mg α-CD in 5 mL double distilled water, 25° C., O.D. at 458 nm): 0.34 g/L | solubility in water ([2]; double distilled water, stirred 1 hour, from optical density of filtrate): 0.0448 gL^−1 | solubility in water ([2]; present reagent): completely soluble in water | increase in solubility in presence of α-CD ([2]; water, with versus without α-CD): ~7.5 fold | incubation time needed for staining ([3]; in presence of α-CD): 2 min | distinguishing Gram +ve and Gram −ve bacteria ([3]; through different color intensities and shape of the stained cells): could also distinguish Gram +ve and Gram −ve bacteria | time in which staining takes place ([3]; without α-CD): 10 to 20 min
